Columns and labels:
Experiment in all cases: relative viability (nuclei count vs DMSO), 5 days (fraction); higher = more cells survive
[1] = test system: SW 1573
Outline: (§1)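 Relative viability is defined as nuclei in treated wells over nuclei in vehicle wells. Duplicate plates were run and medians reported. Lung cancer cell lines in 1536-well plates were dosed by pin tool one day after seeding, with one drug or with a fixed anchor-drug dose plus five library-drug doses (not always all listed) in √10 steps, and nuclei were counted after 5 days.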

[2] = test system: NCI-H650
Outline: as §1

[3] = test system: LU99A
Outline: as §1

[4] = test system: HCC-78
Outline: as §1

[5] = test system: HARA
Outline: as §1

[6] = test system: NCI-H358
Outline: as §1

[7] = test system: LC-2-ad
Outline: as §1

[8] = test system: NCI-H2023
Outline: as §1

[9] = test system: EPLC-272H
Outline: as §1

[10] = test system: HCC-15
Outline: as §1

[11] = test system: NCI-H2126
Outline: as §1

[12] = test system: NCI-H2085
Outline: as §1

[13] = test system: NCI-H1651
Outline: as §1

[14] = test system: NCI-H2342
Outline: as §1

[15] = test system: PC-14
Outline: as §1

[16] = test system: NCI-H838
Outline: as §1

[17] = test system: COR-L23
Outline: as §1

[18] = test system: ABC-1
Outline: as §1

[19] = test system: NCI-H1915
Outline: as §1

[20] = test system: NCI-H2347
Outline: as §1

[21] = test system: NCI-H1355
Outline: as §1

[22] = test system: UMC-11
Outline: as §1

[23] = test system: NCI-H1993
Outline: as §1

SMILES: CC1(C)CCC(c2ccc(Cl)cc2)=C(CN2CCN(c3ccc(C(=O)NS(=O)(=O)c4ccc(N[C@H](CCN5CCOCC5)CSc5ccccc5)c(S(=O)(=O)C(F)(F)F)c4)cc3)CC2)C1 [Navitoclax] + COc1cc2c(Oc3ccc(NC(=O)C4(C(=O)Nc5ccc(F)cc5)CC4)cc3F)ccnc2cc1OCCCN1CCOCC1 [Foretinib] (partner 0.25 µM)
- relative viability ([1]; first compound 0.005 µM): 1.06
- relative viability ([1]; first compound 0.01581 µM): 1
- relative viability ([1]; first compound 0.05 µM): 0.922
- relative viability ([1]; first compound 0.1581 µM): 1.02
- relative viability ([1]; first compound 0.5 µM): 1.04
- relative viability ([2]; first compound 0.005 µM): 1.05
- relative viability ([2]; first compound 0.01581 µM): 1.15
- relative viability ([2]; first compound 0.05 µM): 1
- relative viability ([2]; first compound 0.1581 µM): 1.04
- relative viability ([2]; first compound 0.5 µM): 1.07
- relative viability ([3]; first compound 0.005 µM): 0.796
- relative viability ([3]; first compound 0.01581 µM): 0.886
- relative viability ([3]; first compound 0.05 µM): 0.459
- relative viability ([3]; first compound 0.1581 µM): 0.804
- relative viability ([3]; first compound 0.5 µM): 0.799
- relative viability ([4]; first compound 0.005 µM): 0.596
- relative viability ([4]; first compound 0.01581 µM): 0.663
- relative viability ([4]; first compound 0.1581 µM): 0.591
- relative viability ([4]; first compound 0.5 µM): 0.595
- relative viability ([5]; first compound 0.005 µM): 0.923
- relative viability ([5]; first compound 0.01581 µM): 1.05
- relative viability ([5]; first compound 0.1581 µM): 0.877
- relative viability ([5]; first compound 0.5 µM): 0.863
- relative viability ([6]; first compound 0.005 µM): 0.743
- relative viability ([6]; first compound 0.01581 µM): 0.946
- relative viability ([6]; first compound 0.05 µM): 0.613
- relative viability ([6]; first compound 0.1581 µM): 0.645
- relative viability ([6]; first compound 0.5 µM): 0.728
- relative viability ([7]; first compound 0.005 µM): 0.837
- relative viability ([7]; first compound 0.01581 µM): 1.29
- relative viability ([7]; first compound 0.05 µM): 1.02
- relative viability ([7]; first compound 0.1581 µM): 0.871
- relative viability ([7]; first compound 0.5 µM): 0.887
- relative viability ([8]; first compound 0.005 µM): 0.912
- relative viability ([8]; first compound 0.01581 µM): 1.12
- relative viability ([8]; first compound 0.05 µM): 0.819
- relative viability ([8]; first compound 0.1581 µM): 0.848
- relative viability ([8]; first compound 0.5 µM): 0.995
- relative viability ([9]; first compound 0.005 µM): 0.707
- relative viability ([9]; first compound 0.05 µM): 0.766
- relative viability ([9]; first compound 0.1581 µM): 0.712
- relative viability ([9]; first compound 0.5 µM): 0.764
- relative viability ([10]; first compound 0.005 µM): 1.01
- relative viability ([10]; first compound 0.01581 µM): 1.05
- relative viability ([10]; first compound 0.05 µM): 0.977
- relative viability ([10]; first compound 0.1581 µM): 0.982
- relative viability ([10]; first compound 0.5 µM): 0.918
- relative viability ([11]; first compound 0.005 µM): 1.25
- relative viability ([11]; first compound 0.01581 µM): 1.17
- relative viability ([11]; first compound 0.1581 µM): 1.14
- relative viability ([11]; first compound 0.5 µM): 1.19
- relative viability ([12]; first compound 0.005 µM): 0.92
- relative viability ([12]; first compound 0.01581 µM): 0.98
- relative viability ([12]; first compound 0.05 µM): 0.989
- relative viability ([12]; first compound 0.1581 µM): 0.863
- relative viability ([12]; first compound 0.5 µM): 0.836
- relative viability ([13]; first compound 0.005 µM): 0.681
- relative viability ([13]; first compound 0.01581 µM): 0.979
- relative viability ([13]; first compound 0.05 µM): 0.442
- relative viability ([13]; first compound 0.1581 µM): 0.809
- relative viability ([13]; first compound 0.5 µM): 0.847
- relative viability ([14]; first compound 0.005 µM): 1.19
- relative viability ([14]; first compound 0.01581 µM): 1.22
- relative viability ([14]; first compound 0.05 µM): 0.871
- relative viability ([14]; first compound 0.1581 µM): 1.1
- relative viability ([14]; first compound 0.5 µM): 1.16
- relative viability ([15]; first compound 0.005 µM): 0.898
- relative viability ([15]; first compound 0.01581 µM): 0.981
- relative viability ([15]; first compound 0.05 µM): 1.27
- relative viability ([15]; first compound 0.1581 µM): 0.941
- relative viability ([15]; first compound 0.5 µM): 0.838
- relative viability ([16]; first compound 0.005 µM): 0.976
- relative viability ([16]; first compound 0.01581 µM): 1.09
- relative viability ([16]; first compound 0.05 µM): 1.19
- relative viability ([16]; first compound 0.1581 µM): 1.01
- relative viability ([16]; first compound 0.5 µM): 1.03
- relative viability ([17]; first compound 0.005 µM): 0.957
- relative viability ([17]; first compound 0.01581 µM): 1.13
- relative viability ([17]; first compound 0.05 µM): 1.02
- relative viability ([17]; first compound 0.1581 µM): 0.938
- relative viability ([17]; first compound 0.5 µM): 0.947
- relative viability ([18]; first compound 0.005 µM): 1.32
- relative viability ([18]; first compound 0.01581 µM): 1.17
- relative viability ([18]; first compound 0.05 µM): 1.12
- relative viability ([18]; first compound 0.1581 µM): 1.07
- relative viability ([18]; first compound 0.5 µM): 1.05
- relative viability ([19]; first compound 0.005 µM): 1.08
- relative viability ([19]; first compound 0.01581 µM): 1.12
- relative viability ([19]; first compound 0.05 µM): 1.11
- relative viability ([19]; first compound 0.1581 µM): 1.02
- relative viability ([19]; first compound 0.5 µM): 1.07
- relative viability ([20]; first compound 0.005 µM): 1.42
- relative viability ([20]; first compound 0.05 µM): 0.652
- relative viability ([20]; first compound 0.1581 µM): 0.665
- relative viability ([20]; first compound 0.5 µM): 0.913
- relative viability ([21]; first compound 0.005 µM): 0.993
- relative viability ([21]; first compound 0.01581 µM): 0.951
- relative viability ([21]; first compound 0.05 µM): 0.939
- relative viability ([21]; first compound 0.1581 µM): 0.941
- relative viability ([21]; first compound 0.5 µM): 0.965
- relative viability ([22]; first compound 0.005 µM): 0.976
- relative viability ([22]; first compound 0.01581 µM): 1.14
- relative viability ([22]; first compound 0.05 µM): 1.18
- relative viability ([22]; first compound 0.1581 µM): 0.937
- relative viability ([22]; first compound 0.5 µM): 0.66
- relative viability ([23]; first compound 0.005 µM): 0.854
- relative viability ([23]; first compound 0.01581 µM): 0.938
- relative viability ([23]; first compound 0.05 µM): 0.687
- relative viability ([23]; first compound 0.1581 µM): 0.839
- relative viability ([23]; first compound 0.5 µM): 0.862
